US9833490B1, “Drug combination for the treatment of infertility and its preparation methods and applications” (SICHUAN SHANZE BIOTECH.,LTD., priority 2017, dated 2017)

Target: xanthine oxidase (Homo sapiens, UniProt P47989)
Experiment: Xanthine oxidase inhibitory activity
Type: biochemical
Details: relative to allopurinol

Sequence of xanthine oxidase (P47989 whole entry, species assumed): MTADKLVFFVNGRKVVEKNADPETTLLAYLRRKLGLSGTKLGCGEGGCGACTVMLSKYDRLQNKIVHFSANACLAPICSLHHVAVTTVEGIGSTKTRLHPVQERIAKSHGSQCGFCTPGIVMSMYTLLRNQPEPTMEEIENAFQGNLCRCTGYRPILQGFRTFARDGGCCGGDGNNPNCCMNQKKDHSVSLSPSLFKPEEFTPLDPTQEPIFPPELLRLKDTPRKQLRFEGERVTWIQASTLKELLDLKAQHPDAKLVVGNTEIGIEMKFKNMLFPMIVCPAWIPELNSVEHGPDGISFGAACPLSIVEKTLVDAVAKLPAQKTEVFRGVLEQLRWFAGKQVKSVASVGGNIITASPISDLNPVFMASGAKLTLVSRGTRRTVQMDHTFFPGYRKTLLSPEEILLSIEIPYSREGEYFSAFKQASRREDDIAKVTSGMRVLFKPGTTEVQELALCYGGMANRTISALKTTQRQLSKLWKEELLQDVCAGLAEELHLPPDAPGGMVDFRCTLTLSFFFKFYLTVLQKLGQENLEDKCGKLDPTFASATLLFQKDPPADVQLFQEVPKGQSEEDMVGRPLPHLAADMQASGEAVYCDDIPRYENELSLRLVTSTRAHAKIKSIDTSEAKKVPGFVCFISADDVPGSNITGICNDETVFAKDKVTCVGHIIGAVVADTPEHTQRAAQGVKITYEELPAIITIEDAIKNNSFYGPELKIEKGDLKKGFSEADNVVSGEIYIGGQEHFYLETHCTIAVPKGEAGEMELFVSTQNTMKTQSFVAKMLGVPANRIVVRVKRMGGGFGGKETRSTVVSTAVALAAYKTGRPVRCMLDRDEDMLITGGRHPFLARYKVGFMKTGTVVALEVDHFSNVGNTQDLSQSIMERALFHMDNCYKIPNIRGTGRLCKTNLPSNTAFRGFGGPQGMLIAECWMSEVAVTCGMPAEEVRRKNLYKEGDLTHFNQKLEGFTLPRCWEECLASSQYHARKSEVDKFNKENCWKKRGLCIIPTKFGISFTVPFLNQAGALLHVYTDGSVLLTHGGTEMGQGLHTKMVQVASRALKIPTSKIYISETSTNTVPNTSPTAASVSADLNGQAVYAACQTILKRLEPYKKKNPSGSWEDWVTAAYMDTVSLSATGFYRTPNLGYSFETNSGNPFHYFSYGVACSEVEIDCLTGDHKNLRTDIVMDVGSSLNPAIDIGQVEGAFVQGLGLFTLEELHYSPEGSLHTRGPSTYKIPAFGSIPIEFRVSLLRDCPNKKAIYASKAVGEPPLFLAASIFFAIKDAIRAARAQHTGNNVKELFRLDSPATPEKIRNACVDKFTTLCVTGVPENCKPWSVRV

| xanthine oxidase inhibitory activity, fold higher than allopurinol | Compound |
| --- | --- |
| 17 fold | O=c1c(O)c(-c2ccc(O)c(O)c2)oc2c(O)c(O)ccc12 [melanoxetin, 3,7,8,3′,4′-pentahydroxyflavone] |
| 63 fold | O=C(/C=C/c1ccc(O)c(O)c1)c1ccc(O)c(O)c1O [okanin, 3,4,2′,3′,4′-pentahydroxy trans-chalcone] |
